In patent US10155769B2, “Fused azaheterocyclic compounds and their use as AMPA receptor modulators” (Janssen Pharmaceutica NV, priority 2016, dated 2018):

Molecular target: GluA1o-γ8 (Homo sapiens (Human), UniProt P42261+Q8WXS5)
Test: Calcium flux assay (FLIPR), inhibition of TARP γ8 dependent AMPA receptor activity
Assay type: cell-based
Details: HEK293 cells stably expressing GRIA1o-CACNG8 fusion construct; calcium flux following 15 μM glutamate; negative log of IC50 in molar
Excerpt: This assay was used to test compounds for their ability to inhibit TARP γ8 dependent AMPA receptor activity. The AMPA receptor is a non-selective cation channel activated by glutamate. Ionotropic glutamate receptors normally desensitize too rapidly to allow detectable calcium influx in a FLIPR assay (Strange et al. (2006). “Functional characterisation of homomeric ionotropic glutamate receptors GluR1-GluR6 in a fluorescence-based high throughput screening assay.” Comb Chem High Throughput Screen 9(2): 147-158). But, this desensitization is incomplete, and a substantial steady-state current remains in the sustained presence of glutamate (Cho et al. (2007). “Two families of TARP isoforms that have distinct effects on the kinetic properties of AMPA receptors and synaptic currents.” Neuron 55(6): 890-904).
An in vitro assay was used to determine the potency of test compounds as inhibitors of the glutamate response of the channel formed by GluA1o-γ8. To ensure a 1:1 stoichiometry of GluA1o and γ8 subunits in the expressed channel, a fusion of the cDNAs for GRIA1o and CACNG8 was used. Following Shi et al (2009) “The stoichiometry of AMPA receptors and TARPs varies by neuronal cell type.” Neuron 62(5): 633-640), the C-terminus of the cDNA for GRIA1o was fused to the N-terminus of the cDNA for γ8. The linker sequence was QQQQQQQQQQEFAT. Channels expressed with this construct appear to have similar properties to channels formed by co-expression of GRIA1o with an excess of CACNG8 (Shi et al. 2009). A clonal cell line in HEK293 cells stably expressing this construct, with a geneticin selection marker, was generated for use in this assay.
Cell expressing the GRIA1o-CACNG8 fusion construct were grown in a monolayer in 96- or 384-well microtiter plates. They were washed with assay buffer (135 mM NaCl, 4 mM KCl, 3 mM CaCl2, 1 mM MgCl2, 5 mM glucose, 10 mM HEPES, pH 7.4, 300 mOs) using a Biotek EL405 plate washer. The cells were then loaded with a calcium-sensitive dye (Calcium-5 or Calcium-6, Molecular Devices) and the test compounds at a range of concentrations. Calcium flux following the addition of 15 μM glutamate was monitored using a Molecular Devices FLIPR Tetra.
The fluorescence in each well was normalized to the fluorescence of negative and positive control wells. The negative control wells had no added compounds, and the positive control wells had been incubated with 10 μM CP465022 (a non-subtype-selective AMPA receptor antagonist) (Lazzaro et al. (2002). “Functional characterization of CP-465,022, a selective, noncompetitive AMPA receptor antagonist.” Neuropharmacology 42(2): 143-153). The responses to glutamate as functions of the test compound concentrations were fitted to a four-parameter logistic function. The fitted parameter corresponding to the midpoint was taken to be the potency of inhibition of the compound. The data in Table 4 below illustrates the observed potency for the compounds described herein. pIC50 refers to the negative log of the IC50 in molar.

GluA1o-γ8, sequence (P42261 other isoform, or with tags, fused parts or gaps): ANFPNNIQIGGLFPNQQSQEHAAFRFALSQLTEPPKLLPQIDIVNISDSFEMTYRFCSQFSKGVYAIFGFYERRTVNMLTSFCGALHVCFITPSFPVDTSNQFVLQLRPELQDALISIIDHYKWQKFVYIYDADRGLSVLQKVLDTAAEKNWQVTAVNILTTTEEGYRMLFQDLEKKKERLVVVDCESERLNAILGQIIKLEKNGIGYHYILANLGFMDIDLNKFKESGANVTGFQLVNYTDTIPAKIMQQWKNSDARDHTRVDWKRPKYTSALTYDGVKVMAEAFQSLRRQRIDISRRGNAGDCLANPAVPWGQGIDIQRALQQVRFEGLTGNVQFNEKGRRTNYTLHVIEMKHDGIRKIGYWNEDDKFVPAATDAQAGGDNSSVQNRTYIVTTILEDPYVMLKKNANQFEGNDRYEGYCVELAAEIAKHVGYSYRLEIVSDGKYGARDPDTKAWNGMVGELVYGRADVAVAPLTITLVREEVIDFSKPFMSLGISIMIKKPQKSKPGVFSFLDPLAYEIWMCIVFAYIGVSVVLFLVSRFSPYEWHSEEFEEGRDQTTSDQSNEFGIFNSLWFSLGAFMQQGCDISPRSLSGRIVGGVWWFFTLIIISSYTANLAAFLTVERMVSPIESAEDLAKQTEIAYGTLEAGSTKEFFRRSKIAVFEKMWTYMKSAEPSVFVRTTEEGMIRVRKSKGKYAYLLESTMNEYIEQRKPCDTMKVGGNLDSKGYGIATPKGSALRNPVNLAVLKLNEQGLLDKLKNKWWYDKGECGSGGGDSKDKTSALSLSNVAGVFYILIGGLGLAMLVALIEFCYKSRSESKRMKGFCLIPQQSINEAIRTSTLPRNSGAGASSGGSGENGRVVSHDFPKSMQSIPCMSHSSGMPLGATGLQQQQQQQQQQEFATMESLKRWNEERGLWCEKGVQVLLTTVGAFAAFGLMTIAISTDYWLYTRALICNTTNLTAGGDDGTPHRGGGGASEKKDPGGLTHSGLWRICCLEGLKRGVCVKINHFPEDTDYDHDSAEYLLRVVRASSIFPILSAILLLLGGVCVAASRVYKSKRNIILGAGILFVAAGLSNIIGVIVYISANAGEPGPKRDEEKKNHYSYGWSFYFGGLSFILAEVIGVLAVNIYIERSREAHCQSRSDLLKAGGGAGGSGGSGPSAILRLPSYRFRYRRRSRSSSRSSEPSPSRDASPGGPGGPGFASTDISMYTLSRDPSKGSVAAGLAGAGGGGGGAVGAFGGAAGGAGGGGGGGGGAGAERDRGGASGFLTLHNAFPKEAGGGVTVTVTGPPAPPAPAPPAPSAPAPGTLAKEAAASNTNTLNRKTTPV

pIC50	SMILES
8.9	Cc1cc(-c2c(C(F)(F)F)ncn3cc(C(F)(F)F)nc23)cc2cn[nH]c12 [Example 63, 8-(7-Methyl-1H-indazol-5-yl)-2,7-bis(trifluoromethyl)imidazo[1,2-c]pyrimidine]
9.3	CCc1cn2cnc(C(F)(F)F)c(-c3cc(Cl)c4[nH]ncc4c3)c2n1 [Example 64, 8-(7-Chloro-1H-indazol-5-yl)-2-ethyl-7-(trifluoromethyl)imidazo[1,2-c]pyrimidine]
8.8	CCc1cn2cnc(C(F)(F)F)c(-c3cc(C)c4[nH]ncc4c3)c2n1 [Example 65, 2-Ethyl-8-(7-methyl-1H-indazol-5-yl)-7-(trifluoromethyl)imidazo[1,2-c]pyrimidine]
10.0	CC(C)c1cn2cnc(C(F)(F)F)c(-c3cc(Cl)c4[nH]ncc4c3)c2n1 [Example 66, 8-(7-Chloro-1H-indazol-5-yl)-2-isopropyl-7-(trifluoromethyl)imidazo[1,2-c]pyrimidine]
9.9	FC(F)(F)c1ncn2cc(C3CC3)nc2c1-c1cc(Cl)c2[nH]ncc2c1 [Example 67, 8-(7-Chloro-1H-indazol-5-yl)-2-cyclopropyl-7-(trifluoromethyl)imidazo[1,2-c]pyrimidine]
9.6	Cc1cc(-c2c(C(F)(F)F)ncn3cc(C4CC4)nc23)cc2cn[nH]c12 [Example 68, 2-Cyclopropyl-8-(7-methyl-1H-indazol-5-yl)-7-(trifluoromethyl)imidazo[1,2-c]pyrimidine]
9.5	O=C1Cc2cc(-c3c(C(F)(F)F)ncn4cc(C5CC5)nc34)cc(Cl)c2N1 [Example 69, 7-Chloro-5-[2-cyclopropyl-7-(trifluoromethyl)imidazo[1,2-c]pyrimidin-8-yl]indolin-2-one]
5.3	O=C1Cc2cc(-c3c(C(F)(F)F)ncn4cc(C5CC5)nc34)cc(F)c2N1 [Example 70, 5-[2-Cyclopropyl-7-(trifluoromethyl)imidazo[1,2-c]pyrimidin-8-yl]-7-fluoro-indolin-2-one]
9.8	CC(C)c1ncn2cc(C(F)(F)F)nc2c1-c1cc(Cl)c2[nH]ncc2c1 [Example 71, 8-(7-Chloro-1H-indazol-5-yl)-7-isopropyl-2-(trifluoromethyl)imidazo[1,2-c]pyrimidine]
9.5	CC(C)c1ncn2cc(C(F)F)nc2c1-c1cc(Cl)c2[nH]ncc2c1 [Example 72, 8-(7-Chloro-1H-indazol-5-yl)-2-(difluoromethyl)-7-isopropyl-imidazo[1,2-c]pyrimidine]
9.1	CCc1ncn2cc(C(F)(F)F)nc2c1-c1cc(Cl)c2[nH]ncc2c1 [Example 73, 8-(7-Chloro-1H-indazol-5-yl)-7-ethyl-2-(trifluoromethyl)imidazo[1,2-c]pyrimidine]
8.7	CCc1ncn2cc(C(F)(F)F)nc2c1-c1cc(C)c2[nH]ncc2c1 [Example 74, 7-Ethyl-8-(7-methyl-1H-indazol-5-yl)-2-(trifluoromethyl)imidazo[1,2-c]pyrimidine]
8.9	CCc1ncn2cc(C(F)F)nc2c1-c1cc(Cl)c2[nH]ncc2c1 [Example 75, 8-(7-Chloro-1H-indazol-5-yl)-2-(difluoromethyl)-7-ethyl-imidazo[1,2-c]pyrimidine]
8.5	Cc1ncn2cc(C(F)(F)F)nc2c1-c1cc(Cl)c2[nH]ncc2c1 [Example 76, 8-(7-Chloro-1H-indazol-5-yl)-7-methyl-2-(trifluoromethyl)imidazo[1,2-c]pyrimidine]
9.0	FC(F)(F)c1cn2cnc(C3CC3)c(-c3cc(Cl)c4[nH]ncc4c3)c2n1 [Example 77, 8-(7-Chloro-1H-indazol-5-yl)-7-cyclopropyl-2-(trifluoromethyl)imidazo[1,2-c]pyrimidine]
8.6	FC(F)c1cn2cnc(C3CC3)c(-c3cc(Cl)c4[nH]ncc4c3)c2n1 [Example 78, 8-(7-Chloro-1H-indazol-5-yl)-7-cyclopropyl-2-(difluoromethyl)imidazo[1,2-c]pyrimidine]
8.9	Cc1nc(C2CC2)c(-c2cc(Cl)c3[nH]ncc3c2)c2nc(C(F)(F)F)cn12 [Example 79]
9.2	Cc1nc(C2CC2)c(-c2cc(Cl)c3[nH]ncc3c2)c2nc(C(F)F)cn12 [Example 80, 8-(7-Chloro-1H-indazol-5-yl)-7-cyclopropyl-2-(difluoromethyl)-5-methyl-imidazo[1,2-c]pyrimidine]
9.9	FC(F)(F)c1ncn2c(Cl)c(C3CC3)nc2c1-c1cc(Cl)c2[nH]ncc2c1 [Example 81, 3-Chloro-8-(7-chloro-1H-indazol-5-yl)-2-cyclopropyl-7-(trifluoromethyl)imidazo[1,2-c]pyrimidine]
9.5	Fc1c(C2CC2)nc2c(-c3cc(Cl)c4[nH]ncc4c3)c(C(F)(F)F)ncn12 [Example 82, 8-(7-Chloro-1H-indazol-5-yl)-2-cyclopropyl-3-fluoro-7-(trifluoromethyl)imidazo[1,2-c]pyrimidine]
9.8	O=C1Cc2cc(-c3c(C(F)(F)F)ccn4cc(C(F)(F)F)nc34)cc(Cl)c2N1 [Example 86, 5-(2,7-Bis(trifluoromethyl)imidazo[1,2-a]pyridin-8-yl)-7-chloroindolin-2-one]
9.4	Cc1cc(-c2c(C(F)(F)F)ccn3cc(C(F)(F)F)nc23)cc2c1NC(=O)C2 [Example 87, 5-(2,7-Bis(trifluoromethyl)imidazo[1,2-a]pyridin-8-yl)-7-methylindolin-2-one]
10.3	FC(F)(F)c1cn2ccc(C(F)(F)F)c(-c3cc(Cl)c4[nH]ncc4c3)c2n1 [Example 88, 5-(2,7-Bis(trifluoromethyl)imidazo[1,2-a]pyridin-8-yl)-7-chloro-1H-indazole]
10.6	CC(C)c1cn2ccc(C(F)(F)F)c(-c3cc(Cl)c4[nH]ncc4c3)c2n1 [Example 89, 8-(7-Chloro-1H-indazol-5-yl)-2-isopropyl-7-(trifluoromethyl)imidazo[1,2-a]pyridine]
9.6	Cc1cc(-c2c(C(F)(F)F)ccn3cc(C4CC4)nc23)cc2cn[nH]c12 [Example 91, 2-Cyclopropyl-8-(7-methyl-1H-indazol-5-yl)-7-(trifluoromethyl)imidazo[1,2-a]pyridine]
9.4	CCc1cn2ccc(C(F)(F)F)c(-c3cc(C)c4[nH]ncc4c3)c2n1 [Example 92, 2-Ethyl-8-(7-methyl-1H-indazol-5-yl)-7-(trifluoromethyl)imidazo[1,2-a]pyridine]
9.3	Cc1cc(-c2c(C(F)(F)F)ccn3cc(C(F)F)nc23)cc2cn[nH]c12 [Example 93, 2-(Difluoromethyl)-8-(7-methyl-1H-indazol-5-yl)-7-(trifluoromethyl)imidazo[1,2-a]pyridine]
8.1	Cc1cn2ccc(C(F)(F)F)c(-c3cc(C)c4[nH]ncc4c3)c2n1 [Example 94, 2-Methyl-8-(7-methyl-1H-indazol-5-yl)-7-(trifluoromethyl)imidazo[1,2-a]pyridine]
